# Tested on: not given
# Assay: not given
# Conditions: not given
row,melting point [°C],SMILES
1,139 to 140,"C[C@H]1COc2nccc(-c3ccccc3)c2C(=O)N(Cc2ccccc2)C1 [Reference Example 124, (R)-5-Benzyl-2,3,4,5-tetrahydro-3-methyl-6-oxo-7-phenyl-6H-pyrido[2,3-b][1,5]oxazocine]"
2,142 to 143,"C[C@@H]1COc2nccc(-c3ccccc3)c2C(=O)N(Cc2cc(C(F)(F)F)cc(C(F)(F)F)c2)C1 [Reference Example 125, (S)-5-[3,5-Bis(trifluoromethyl)benzyl]-2,3,4,5-tetrahydro-3-methyl-6-oxo-7-phenyl-6H-pyrido[2,3-b][1,5]oxazocine]"
3,142 to 143,"C[C@H]1COc2nccc(-c3ccccc3)c2C(=O)N(Cc2cc(C(F)(F)F)cc(C(F)(F)F)c2)C1 [Reference Example 126, (R)-5-[3,5-Bis(trifluoromethyl)benzyl]-2,3,4,5-tetrahydro-3-methyl-6-oxo-7-phenyl-6H-pyrido[2,3-b][1,5]oxazocine]"
4,203 to 204,"Cc1ccc(-c2ccnc3c2C(=O)N(Cc2ccccc2)CCO3)cc1 [Reference Example 133, 4-Benzyl-2,3,4,5-tetrahydro-5-oxo-6-(4-methylphenyl)pyrido[3,2-f][1,4]oxazepine]"
5,212 to 213,"Cc1ccc(-c2ccnc3c2C(=O)N(Cc2cc(C(F)(F)F)cc(C(F)(F)F)c2)CCO3)cc1 [Reference Example 134, 4-[3,5-Bis(trifluoromethyl)benzyl]2,3,4,5-tetrahydro-5-oxo-6-(4-methylphenyl)pyrido[3,2-f][1,4]oxazepine]"
6,148 to 149,"Cc1ccc(-c2ccnc3c2C(=O)N(Cc2ccccc2)C[C@H](C)CO3)cc1 [Reference Example 135, (S)-5-Benzyl-2,3,4,5-tetrahydro-3-methyl-7-(4-methylphenyl)-6-oxo-6H-pyrido[2,3-b][1,5]oxazocine]"
7,159 to 160,"Cc1ccc(-c2ccnc3c2C(=O)N(Cc2cc(C(F)(F)F)cc(C(F)(F)F)c2)C[C@H](C)CO3)cc1 [Reference Example 136, (S)-5-[3,5-Bis(trifluoromethyl)benzyl]2,3,4,5-tetrahydro-3-methyl-7-(4-methylphenyl)-6-oxo-6H-pyrido[2,3-b][1,5]oxazocine]"

# Molecular target: T1, substance P receptor (Homo sapiens, UniProt P25103)
# T1 construct: The receptor was prepared from human lymphoblast cells (IM-9); endogenous in cells; host or cells: IM-9 human lymphoblast cells (membrane preparation)
# T1 sequence (P25103 whole entry): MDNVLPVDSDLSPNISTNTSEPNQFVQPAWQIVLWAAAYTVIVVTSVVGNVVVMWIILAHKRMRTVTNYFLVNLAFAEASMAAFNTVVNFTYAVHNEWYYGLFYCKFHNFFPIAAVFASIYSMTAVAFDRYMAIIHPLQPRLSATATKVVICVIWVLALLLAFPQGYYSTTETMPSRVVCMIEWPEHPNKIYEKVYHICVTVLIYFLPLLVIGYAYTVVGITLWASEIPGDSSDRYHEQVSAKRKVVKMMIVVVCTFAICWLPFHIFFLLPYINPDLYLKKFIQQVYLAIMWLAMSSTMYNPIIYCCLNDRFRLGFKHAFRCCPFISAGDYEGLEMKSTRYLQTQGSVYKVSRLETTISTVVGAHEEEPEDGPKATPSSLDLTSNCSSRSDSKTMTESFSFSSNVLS
# Assay: Radioligand receptor binding inhibitory activity using receptor from human lymphoblast cells (IM-9)
# Conditions: 125I-BHSP radioligand, receptor from IM-9 cells, 25° C. for 30 minutes
# Experimental: Radioligand receptor binding inhibitory activity Binding inhibitory activity using receptor from human lymphoblast cells (IM-9)
# The receptor was prepared from human lymphoblast cells (IM-9). IM-9 cells (2×10^5 cells/ml) were inoculated and incubated for 3 days (one liter), which was then subjected to centrifuge for 5 minutes at 500×g to obtain cell pellets. […] The residue was washed twice with 30 ml of the above-mentioned buffer, which was then preserved frozen (−80° C.) as a specimen of the receptor.
# The specimen was suspended in a reaction buffer (50 mM Tri-HCl buffer (pH 7.4), 0.02% bovine serum albumin, 1 mM phenylmethylsulfonyl fluoride, […], […] bacitracin, 3 mM manganese chloride) and 100 ul portion was the suspension was used in the reaction. […] The amount of nonspecific binding was determined by adding substance P at a final concentration of 2×10^−6M. After the reaction, using a cell harvester (290 PHD, Cambridge Technology, Inc, U.S.A.), rapid filtration was carried out through a glass filter (GF/B, Whatman, U.S.A.) to stop the reaction. After washing three times with 250 ul of 50 mM of Tris-HCl buffer (pH 7.4) containing 0.02% bovine serum albumin, the radioactivity remaining on the filter was determined with a gamma counter. Before use, the filter was immersed in 0.1% polyethyleneimine for 24 hours and air-dried.
row,IC50 [nM],SMILES
1,0.69,"CCOc1cc(CN2C[C@H](C)CCn3c(c(-c4ccc(C)cc4)c4cccnc4c3=O)C2=O)cc(OCC)c1 [Example 3, (9R)-7-(3,5-diethoxybenzyl)-6,7,8,9,10,11-hexahydro-9-methyl-5-(4-methylphenyl)-6,13-dioxo-13H-[1,4]diazosino[2,1-g][1,7]napththylidine]"
2,0.17,"Cc1ccc(-c2c3n(c(=O)c4ncccc24)CC[C@@H](C)CN(Cc2cc(OC(C)C)cc(OC(C)C)c2)C3=O)cc1 [Example 4, (9R)-7-[3,5-di(1-methylethyloxy)benzyl)-6,7,8,9,10,11-hexahydro-9-methyl-5-(4-methylphenyl)-6,13-dioxo-13H-[1,4]diazosino[2,1-g[]1,7]napththylidine]"
3,0.13,"C[C@@H]1CCn2c(c(-c3ccc(Cl)cc3)c3cccnc3c2=O)C(=O)N(Cc2cc(C(F)(F)F)cc(C(F)(F)F)c2)C1 [Example 6, (9R)-7-[3,5-bis(trifluoromethyl)benzyl]-5-(4-chlorophenyl)-6,7,8,9,10,11-hexahydro-9-methyl-6,13-dioxo-13H-[1,4]diazosino[2,1-g][1,7]napththylidine]"
4,0.83,C[C@@H]1CCn2c(c(-c3ccc(Cl)c(Cl)c3)c3cccnc3c2=O)C(=O)N(Cc2cc(C(F)(F)F)cc(C(F)(F)F)c2)C1 [Example 7]
5,0.37,"C[C@@H]1CCn2c(c(-c3ccc(F)cc3)c3cccnc3c2=O)C(=O)N(Cc2cc(C(F)(F)F)cc(C(F)(F)F)c2)C1 [Example 14, (9R)-7-[3,5-bis(trifluoromethyl)benzyl]-5-(4-fluorophenyl)-6,7,8,9,10,11-hexahydro-9-methyl-6,13-dioxo-13H-[1,4]diazosino[2,1-g][1,7]napththylidine]"

# — patent publication US20020132817A1, “Heterocyclic compounds, their production and use” (priority 1998, published 2002)
